The target of one data set is T1, BsLonBA (Bacillus subtilis, UniProt P42425).
T1 construct: gene lon2; P domain, residues 347–552 (crystal); full-length BsLonBA-H6 (IC50)
Put plainly: IC50 from PepTBE peptidase assay of full-length enzyme. The format is biochemical.

The target in a further data set is T2, EcLonA (Escherichia coli, UniProt P0A9M0).
T2 construct: gene lon; EcLonA-H6 (C-terminal hexahistidine tag)
Description: inhibition of PepTBE hydrolysis (peptidase assay, DTDP detection); also suppresses β-casein proteolysis. The format is biochemical.

Data set [1] deals with the molecule itself. Description: SEC; HiPrep 26/60 Sephacryl S-200 HR sizing column before crystallization, 25 mM Tris pH 7.5, 200 mM NaCl, 2 mM TCEP, 4-8 °C; no bortezomib. On the technique in general: SEC sorts molecules by how far they enter the pores of the column.
Data set [2] concerns the molecule itself. Put plainly: crystal structure; P domain with bortezomib (molar ratio 1:6), 10 mM MgCl2, hanging drop, 35% PEG400 pH 7.8; space group P6_(3), two molecules in the asymmetric unit, hexamer by the crystallographic 3-fold axis; 1.9 Å.

T1 sequence (P42425 whole entry, the tested form may be a part): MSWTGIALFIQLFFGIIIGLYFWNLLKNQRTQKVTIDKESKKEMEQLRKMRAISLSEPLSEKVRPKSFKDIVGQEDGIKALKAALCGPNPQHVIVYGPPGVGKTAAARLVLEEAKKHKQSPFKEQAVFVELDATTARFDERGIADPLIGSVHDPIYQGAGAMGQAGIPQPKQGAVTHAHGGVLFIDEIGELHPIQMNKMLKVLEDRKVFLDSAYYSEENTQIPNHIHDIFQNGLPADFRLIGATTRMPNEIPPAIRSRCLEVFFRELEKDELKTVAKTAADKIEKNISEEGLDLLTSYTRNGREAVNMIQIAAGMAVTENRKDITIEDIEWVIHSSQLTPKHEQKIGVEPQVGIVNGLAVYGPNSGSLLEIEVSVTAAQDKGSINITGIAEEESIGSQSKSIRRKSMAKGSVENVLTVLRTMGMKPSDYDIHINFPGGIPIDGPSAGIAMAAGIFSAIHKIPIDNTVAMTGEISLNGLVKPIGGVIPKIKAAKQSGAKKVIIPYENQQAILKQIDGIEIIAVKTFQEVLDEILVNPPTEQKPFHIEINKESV
T2 sequence (P0A9M0 2-784): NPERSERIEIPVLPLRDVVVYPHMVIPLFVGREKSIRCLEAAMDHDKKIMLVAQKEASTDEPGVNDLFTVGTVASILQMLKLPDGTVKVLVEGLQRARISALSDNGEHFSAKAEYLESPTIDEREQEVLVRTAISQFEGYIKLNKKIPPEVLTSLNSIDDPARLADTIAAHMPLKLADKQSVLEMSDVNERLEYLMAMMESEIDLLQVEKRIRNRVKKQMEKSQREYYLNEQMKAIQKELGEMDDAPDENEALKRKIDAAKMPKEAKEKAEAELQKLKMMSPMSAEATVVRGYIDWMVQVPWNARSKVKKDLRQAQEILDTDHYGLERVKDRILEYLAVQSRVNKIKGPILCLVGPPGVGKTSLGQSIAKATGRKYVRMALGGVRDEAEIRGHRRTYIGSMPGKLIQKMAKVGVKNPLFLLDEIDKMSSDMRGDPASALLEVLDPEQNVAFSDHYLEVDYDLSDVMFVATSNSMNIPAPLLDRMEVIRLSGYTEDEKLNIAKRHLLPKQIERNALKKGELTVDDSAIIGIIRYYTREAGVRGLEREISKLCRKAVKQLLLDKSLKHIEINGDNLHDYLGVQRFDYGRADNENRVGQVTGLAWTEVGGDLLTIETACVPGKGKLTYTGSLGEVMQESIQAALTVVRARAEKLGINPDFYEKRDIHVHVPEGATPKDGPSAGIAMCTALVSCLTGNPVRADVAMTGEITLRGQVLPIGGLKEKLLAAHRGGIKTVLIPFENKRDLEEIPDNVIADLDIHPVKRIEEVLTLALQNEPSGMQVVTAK

As usually defined, the IC50 is the concentration that inhibits the measured activity by half. Turning to `CC(C)C[C@H](NC(=O)[C@H](Cc1ccccc1)NC(=O)c1cnccn1)B(O)O` [bortezomib], the values for the IC50 at BsLonBA and at EcLonA were 1.15 µM and 0.05 µM, respectively.

B1: P domain of BsLonBA (residues 347-552) (domain or fragment, Bacillus subtilis strain 168, UniProt P42425 347-552, looked up)
chain: GVEPQVGIVNGLAVYGPNSGSLLEIEVSVTAAQDKGSINITGIAEEESIGSQSKSIRRKSMAKGSVENVLTVLRTMGMKPSDYDIHINFPGGIPIDGPSAGIAMAAGIFSAIHKIPIDNTVAMTGEISLNGLVKPIGGVIPKIKAAKQSGAKKVIIPYENQQAILKQIDGIEIIAVKTFQEVLDEILVNPPTEQKPFHIEINKESV
modifications: bortezomib covalently bound to the Oγ of Ser445 via the boronate moiety (in the crystal only; added after the sizing column)
notes: LonBA protease (previously assigned as LonB) of Bacillus subtilis strain 168, protease (P) domain, residues Gly347-Val552 of the 552-residue enzyme; catalytic dyad Ser445 and Lys488; Dimer on the sizing column, hexamer in the crystal by crystallographic symmetry (two chains in the asymmetric unit); Modelled in the maps: residues 352-547 in chain A and 348-535 in chain B; also called protease …
What is called stoichiometry N is the number of molecules, sites or subunits per partner or assembly. As to B1, the “stoichiometry N” value in data set [1] was 2; in data set [2], 6.

Values taken from paper PMC9569914, “Unique Structural Fold of LonBA Protease from Bacillus subtilis, a Member of a Newly Identified Subfamily of Lon Proteases” (International Journal of Molecular Sciences, 2022).
